Measured values reported in PubChem BioAssay AID248 (DTP/NCI, 2004).
Values joined by “and” are separate entries in the source; they are usually repeats but may differ in a detail not shown here. Equal entries are not always repeated. Toxic doses and inconclusive results are not listed. No stated cut-off is given here; in the data, active means T/C of 150% or more; inactive means T/C below 125%.

Tested on: L1210 leukemia ip in BDF1 mice, survival T/C
Assay: NCI In Vivo Anticancer Drug Screen. Data for tumor model L1210 Leukemia (intraperitoneal) in B6D2F1 (BDF1) mice
Conditions: endpoint: mean survival time, higher = longer survival
Procedure, shortened: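 Mice bearing the transplanted tumor received compound or vehicle. Survival of the treated group was divided by that of the vehicle-treated control group to give the ratio.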

[1] = dose: 100.0 mg/kg/injection, schedule: Q04DX002 (ip), vehicle: saline with Tween-80
[2] = dose: 200.0 mg/kg/injection, schedule: Q04DX002 (ip), vehicle: saline with Tween-80
[3] = dose: 400.0 mg/kg/injection, schedule: Q04DX002 (ip), vehicle: saline with Tween-80
[4] = dose: 100.0 mg/kg/injection, schedule: Q04DX003 (ip), vehicle: saline with Tween-80
[5] = dose: 200.0 mg/kg/injection, schedule: Q04DX003 (ip), vehicle: saline with Tween-80
[6] = dose: 400.0 mg/kg/injection, schedule: Q04DX003 (ip), vehicle: saline with Tween-80
[7] = dose: 100.0 mg/kg/injection, schedule: Q01DX009 (ip), vehicle: Klucel (hydroxypropylcellulose) (HPC)
[8] = dose: 100.0 mg/kg/injection, schedule: Q04DX003 (ip), vehicle: Klucel (hydroxypropylcellulose) (HPC)
[9] = dose: 200.0 mg/kg/injection, schedule: Q01DX009 (ip), vehicle: Klucel (hydroxypropylcellulose) (HPC)
[10] = dose: 200.0 mg/kg/injection, schedule: Q04DX003 (ip), vehicle: Klucel (hydroxypropylcellulose) (HPC)
[11] = dose: 400.0 mg/kg/injection, schedule: Q04DX003 (ip), vehicle: Klucel (hydroxypropylcellulose) (HPC)
[12] = dose: 100.0 mg/kg/injection, schedule: Q01DX009 (ip), vehicle: saline with Tween-80
[13] = dose: 100.0 mg/kg/injection, schedule: Q01DX009 (ip), vehicle: saline
[14] = dose: 400.0 mg/kg/injection, schedule: Q01DX009 (ip), vehicle: saline
[15] = dose: 100.0 mg/kg/injection, schedule: Q04DX003 (ip), vehicle: saline
[16] = dose: 200.0 mg/kg/injection, schedule: Q04DX003 (ip), vehicle: saline
[17] = dose: 400.0 mg/kg/injection, schedule: Q04DX003 (ip), vehicle: saline

Measured: T/C

CCCCCC[Se][Se]CCCCCC
inactive: dose: 6.25 mg/kg/injection, schedule: Q01DX009 (ip), vehicle: Klucel (hydroxypropylcellulose) (HPC) 96 % of control | dose: 12.5 mg/kg/injection, schedule: Q01DX009 (ip), vehicle: Klucel (hydroxypropylcellulose) (HPC) 96 % of control | dose: 25.0 mg/kg/injection, schedule: Q01DX009 (ip), vehicle: Klucel (hydroxypropylcellulose) (HPC) 91 % of control | dose: 25.0 mg/kg/injection, schedule: Q04DX003 (ip), vehicle: Klucel (hydroxypropylcellulose) (HPC) 90 % of control | dose: 50.0 mg/kg/injection, schedule: Q04DX003 (ip), vehicle: Klucel (hydroxypropylcellulose) (HPC) 103 % of control and 107 % of control

O=C(NC(=S)Nc1ccccc1)c1ccc([N+](=O)[O-])cc1
inactive: dose: 75.0 mg/kg/injection, schedule: Q01DX001 (ip), vehicle: carboxymethylcellulose (CMC) 98 % of control | dose: 150.0 mg/kg/injection, schedule: Q01DX001 (ip), vehicle: carboxymethylcellulose (CMC) 90 % of control | dose: 300.0 mg/kg/injection, schedule: Q01DX001 (ip), vehicle: carboxymethylcellulose (CMC) 101 % of control

CCC[CH2][Sn]1([CH2]CCC)[CH2]CC(=O)[O]1
inactive: [1] 103 % of control | [2] 95 % of control | [3] 92 % of control

C=CCN(CC=C)c1nc(Oc2ccccc2)nc(Oc2ccccc2)n1
inactive: dose: 25.6 mg/kg/injection, schedule: Q04DX002 (ip), vehicle: saline with Tween-80 104 % of control | dose: 64.0 mg/kg/injection, schedule: Q04DX002 (ip), vehicle: saline with Tween-80 101 % of control | [4] 89 % of control | dose: 160.0 mg/kg/injection, schedule: Q04DX002 (ip), vehicle: saline with Tween-80 93 % of control | [5] 92 % of control | [3] 89 % of control | [6] 93 % of control

N#CCCN(CCC#N)c1ccc(C=O)cc1
inactive: [7] 97 % of control | [8] 111 % of control | [9] 103 % of control | [10] 93 % of control | dose: 400.0 mg/kg/injection, schedule: Q01DX009 (ip), vehicle: Klucel (hydroxypropylcellulose) (HPC) 96 % of control | [11] 98 % of control

CCOC(=O)c1cnc2c(ccc3cc(OC)ccc32)c1Cl
inactive: dose: 50.0 mg/kg/injection, schedule: Q01DX009 (ip), vehicle: Klucel (hydroxypropylcellulose) (HPC) 101 % of control | [7] 97 % of control | [9] 101 % of control

Cc1cccc(NC(=O)c2ccccc2)n1
inactive: [4] 97 % of control | [5] 95 % of control | [6] 92 % of control

O/N=C/c1ccccc1
inactive: dose: 66.0 mg/kg/injection, schedule: Q01DX009 (ip), vehicle: saline with Tween-80 87 % of control | [12] 96 % of control | dose: 150.0 mg/kg/injection, schedule: Q01DX009 (ip), vehicle: saline with Tween-80 95 % of control

Cc1ccc(S(=O)(=O)N/N=C/C=C/c2ccccc2)cc1
inactive: [1] 103 % of control | [2] 93 % of control | [3] 93 % of control

Cc1ccc(S(=O)(=O)SS(=O)(=O)c2ccc(C)cc2)cc1
inactive: [1] 90 % of control | [2] 90 % of control | [3] 90 % of control

CCC(=O)c1cc(OC)cc(OC)c1
inactive: [13] 105 % of control | dose: 200.0 mg/kg/injection, schedule: Q01DX009 (ip), vehicle: saline 105 % of control | [14] 112 % of control

COc1ccc(-c2ccccc2)cc1S
inactive: dose: 50.0 mg/kg/injection, schedule: Q01DX001 (ip), vehicle: carboxymethylcellulose (CMC) 95 % of control | dose: 100.0 mg/kg/injection, schedule: Q01DX001 (ip), vehicle: carboxymethylcellulose (CMC) 98 % of control | dose: 200.0 mg/kg/injection, schedule: Q01DX001 (ip), vehicle: carboxymethylcellulose (CMC) 93 % of control | dose: 400.0 mg/kg/injection, schedule: Q01DX001 (ip), vehicle: carboxymethylcellulose (CMC) 98 % of control

O=C1/C(=C\c2ccccc2)COC/C1=C\c1ccccc1
inactive: [13] 94 % of control | [14] 87 % of control

Cn1c(=O)c2c(ncn2CCSc2nnnc3ccccc23)n(C)c1=O
inactive: [15] 98 % of control | [16] 93 % of control | [17] 94 % of control

C=C(C)C(=O)Nc1ccccc1
inactive: [8] 86 % of control | [10] 89 % of control

COc1cc2[nH]c(=O)c3cccn3c(=O)c2cc1OC
inactive: dose: 50.0 mg/kg/injection, schedule: Q04DX002 (ip), vehicle: other 102 % of control | dose: 100.0 mg/kg/injection, schedule: Q04DX002 (ip), vehicle: other 105 % of control | dose: 200.0 mg/kg/injection, schedule: Q04DX002 (ip), vehicle: other 94 % of control

NC(CCl)=NCc1cccnc1
inactive: dose: 12.5 mg/kg/injection, schedule: Q04DX002 (ip), vehicle: saline 97 % of control | dose: 25.0 mg/kg/injection, schedule: Q04DX002 (ip), vehicle: saline 108 % of control

CCC(C)C(C#N)(CCN(CC=C(C)C)CC=C(C)C)c1cccc2ccccc12 (stereo unspecified)
inactive: [8] 96 % of control | [10] 110 % of control | [11] 93 % of control

CCC1CCC(NC(=O)NCCF)CC1 (stereo unspecified)
inactive: dose: 75.0 mg/kg/injection, schedule: Q01DX001 (ip), vehicle: other 98 % of control

CN(C)S(=O)(=O)c1ccc(CCc2ccccc2)cc1
inactive: dose: 50.0 mg/kg/injection, schedule: Q01DX001 (ip), vehicle: saline 101 % of control | dose: 100.0 mg/kg/injection, schedule: Q01DX001 (ip), vehicle: saline 95 % of control | dose: 200.0 mg/kg/injection, schedule: Q01DX001 (ip), vehicle: saline 95 % of control | dose: 400.0 mg/kg/injection, schedule: Q01DX001 (ip), vehicle: saline 95 % of control

Cc1ccc(S(=O)(=O)NCN2C(=O)c3ccccc3C2=O)cc1
inactive: dose: 100.0 mg/kg/injection, schedule: Q01DX001 (ip), vehicle: acetone 98 % of control | [12] 93 % of control | [15] 94 % of control | dose: 200.0 mg/kg/injection, schedule: Q01DX001 (ip), vehicle: acetone 93 % of control | dose: 200.0 mg/kg/injection, schedule: Q01DX009 (ip), vehicle: saline with Tween-80 98 % of control | [16] 97 % of control | dose: 400.0 mg/kg/injection, schedule: Q01DX001 (ip), vehicle: acetone 95 % of control | dose: 400.0 mg/kg/injection, schedule: Q01DX009 (ip), vehicle: saline with Tween-80 97 % of control | [17] 99 % of control

NC(=O)Oc1ccc(C2CC(=O)C(C(N)=O)C(=O)C2)cc1 (stereo unspecified)
inactive: dose: 100.0 mg/kg/injection, schedule: Q01DX001 (ip), vehicle: other 97 % of control | [4] 108 % of control | dose: 200.0 mg/kg/injection, schedule: Q01DX001 (ip), vehicle: other 92 % of control | [5] 103 % of control | dose: 400.0 mg/kg/injection, schedule: Q01DX001 (ip), vehicle: other 94 % of control | [6] 100 % of control
